Laboratory results as given in US11945822B2, “Pyrazolo-triazine and/or pyrazolo-pxrimidine derivatives as selective inhibitor of cyclin dependent kinase” (QURIENT CO., LTD., priority 2018, dated 2024).

molecular target: T1, CDK5/p25 (Homo sapiens, UniProt Q00535); test: Enzymatic assay for CDK5 (FRET based LANCE Ultra kinase assay); type: biochemical; conditions: read-out: CDK5 enzymatic activity (IC50 activity range)
T1 construct: purchased Invitrogen PR8543B
How it was run: (§1)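 Each CDK complex ([…]) phosphorylated 68 nM ULight-MBP peptide with ATP at Km for 60 min at 23° C., against 8 compound doses (4-fold dilutions). EDTA/Eu-anti-phospho-MBP detection, 60 min, then TR-FRET emission at 615 and 665 nm.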

T1 sequence (Q00535 whole entry): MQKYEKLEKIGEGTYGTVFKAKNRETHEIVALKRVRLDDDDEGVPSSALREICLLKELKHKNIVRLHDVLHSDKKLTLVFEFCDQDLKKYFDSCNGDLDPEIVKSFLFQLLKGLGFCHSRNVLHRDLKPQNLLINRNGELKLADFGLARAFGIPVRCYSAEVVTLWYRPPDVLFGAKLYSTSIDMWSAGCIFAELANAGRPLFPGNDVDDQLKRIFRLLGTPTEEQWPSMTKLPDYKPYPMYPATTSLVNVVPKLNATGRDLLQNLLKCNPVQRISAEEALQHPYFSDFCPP
T1 sequence (Q15078 99-307 partner limits assumed): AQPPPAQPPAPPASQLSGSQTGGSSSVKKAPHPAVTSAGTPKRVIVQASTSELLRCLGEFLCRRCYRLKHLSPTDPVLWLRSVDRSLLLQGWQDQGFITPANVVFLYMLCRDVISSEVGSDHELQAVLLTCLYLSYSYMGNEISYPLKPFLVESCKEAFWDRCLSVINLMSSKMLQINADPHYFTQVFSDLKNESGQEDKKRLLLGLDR

Row | IC50 [nM] | Compound
1 | > 1000 | CC(C)c1cnn2c(NCc3ccccc3-c3ccc4ccccc4n3)nc(O[C@H]3CC[C@@H](O)CC3)nc12 [Compound 272]
2 | > 1000 | CC(C)c1cnn2c(NCc3ccccc3-c3ccc4ccccc4n3)nc(O[C@H]3CC[C@H](O)CC3)nc12 [Compound 273]
3 | > 1000 | CC(C)c1cnn2c(NCc3ccccc3-n3cccn3)nc(N3CCc4ncccc4C3)nc12 [Compound 275]

test system: MV4-11; test: Cellular MV4-11 viability assay (CellTiter-Glo, 72 hours); type: cell-based; conditions: Homo sapiens
How it was run: (§2)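 72 h treatment, 37 °C, 5% CO2; DMSO ctrl, final <0.1%; CellTiter-Glo luminescence; n=2.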

Row | IC50 [nM] | Compound
4 | 1000 to 10000 | CC(C)c1cnn2c(NCc3ccccc3-c3ccc4ccccc4n3)nc(O[C@H]3CC[C@@H](O)CC3)nc12 [Compound 272]
5 | 1000 to 10000 | CC(C)c1cnn2c(NCc3ccccc3-c3ccc4ccccc4n3)nc(O[C@H]3CC[C@H](O)CC3)nc12 [Compound 273]
6 | 1000 to 10000 | CC(C)c1cnn2c(NCc3ccccc3-n3cccn3)nc(N3CCc4ncccc4C3)nc12 [Compound 275]

molecular target: T2, CDK7/Cyclin H/MNAT1 (Homo sapiens, UniProt P50613); test: Enzymatic assay for CDK7 (FRET based LANCE Ultra kinase assay); type: biochemical; conditions: CDK1/CDK7
T2 construct: purchased Invitrogen PR6749B
T2 sequence (P50613 whole entry): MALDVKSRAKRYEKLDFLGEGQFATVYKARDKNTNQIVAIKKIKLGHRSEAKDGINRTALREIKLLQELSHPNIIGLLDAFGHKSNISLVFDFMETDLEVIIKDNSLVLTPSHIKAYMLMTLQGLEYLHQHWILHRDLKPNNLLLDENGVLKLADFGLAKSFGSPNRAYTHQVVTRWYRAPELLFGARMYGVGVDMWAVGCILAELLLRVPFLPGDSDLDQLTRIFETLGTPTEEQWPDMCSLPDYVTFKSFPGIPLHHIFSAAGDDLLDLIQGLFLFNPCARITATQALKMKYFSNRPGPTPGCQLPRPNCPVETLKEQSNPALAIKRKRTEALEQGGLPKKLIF
T2 sequence (P51946 whole entry partner): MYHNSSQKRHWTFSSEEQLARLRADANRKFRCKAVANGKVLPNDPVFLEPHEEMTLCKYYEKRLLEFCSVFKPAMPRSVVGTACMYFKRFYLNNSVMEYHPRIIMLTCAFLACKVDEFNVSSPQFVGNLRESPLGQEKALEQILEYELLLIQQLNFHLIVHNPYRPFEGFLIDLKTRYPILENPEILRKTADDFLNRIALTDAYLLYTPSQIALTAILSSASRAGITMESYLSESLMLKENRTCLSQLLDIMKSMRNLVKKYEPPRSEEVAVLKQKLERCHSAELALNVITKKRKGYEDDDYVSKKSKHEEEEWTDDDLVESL
T2 sequence (P51948 whole entry partner): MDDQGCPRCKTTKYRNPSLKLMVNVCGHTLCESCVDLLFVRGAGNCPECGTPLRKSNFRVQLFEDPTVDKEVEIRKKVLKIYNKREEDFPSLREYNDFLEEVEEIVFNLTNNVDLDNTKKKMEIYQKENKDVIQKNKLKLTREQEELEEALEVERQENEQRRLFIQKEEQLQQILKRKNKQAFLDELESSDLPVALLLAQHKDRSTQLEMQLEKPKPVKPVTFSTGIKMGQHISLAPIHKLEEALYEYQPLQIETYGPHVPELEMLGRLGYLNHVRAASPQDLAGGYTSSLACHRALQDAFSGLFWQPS
How it was run: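 LANCE Ultra TR-FRET kinase assay using a ULight-labeled peptide substrate and a Eu-labeled anti-phospho antibody, with ATP at its Km. Purified CDK/cyclin complex was added to compound after brief centrifugation.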

Row | CDK1/CDK7: Selectivity of CDK7 inhibition over CDK1 inhibition | Compound
7 | A (A=greater than 200 fold) | CC(C)c1cnn2c(NCc3ccccc3-c3ccc4ccccc4n3)nc(O[C@H]3CC[C@@H](O)CC3)nc12 [Compound 272]
8 | A (A=greater than 200 fold) | CC(C)c1cnn2c(NCc3ccccc3-c3ccc4ccccc4n3)nc(O[C@H]3CC[C@H](O)CC3)nc12 [Compound 273]
9 | A (A=greater than 200 fold) | CC(C)c1cnn2c(NCc3ccccc3-n3cccn3)nc(N3CCc4ncccc4C3)nc12 [Compound 275]

same assay, conditions: CDK2/CDK7

Row | CDK2/CDK7: Selectivity of CDK7 inhibition over CDK2 inhibition | Compound
10 | A (A=greater than 200 fold) | CC(C)c1cnn2c(NCc3ccccc3-c3ccc4ccccc4n3)nc(O[C@H]3CC[C@@H](O)CC3)nc12 [Compound 272]
11 | A (A=greater than 200 fold) | CC(C)c1cnn2c(NCc3ccccc3-c3ccc4ccccc4n3)nc(O[C@H]3CC[C@H](O)CC3)nc12 [Compound 273]

Row | Compound | CDK2/CDK7: Selectivity of CDK7 inhibition over CDK2 inhibition
12 | CC(C)c1cnn2c(NCc3ccccc3-n3cccn3)nc(N3CCc4ncccc4C3)nc12 [Compound 275] | B (B=less than 200 fold, but greater than 20 fold)

same assay, conditions: CDK5/CDK7

Row | CDK5/CDK7: Selectivity of CDK7 inhibition over CDK5 inhibition | Compound
13 | A (A=greater than 200 fold) | CC(C)c1cnn2c(NCc3ccccc3-c3ccc4ccccc4n3)nc(O[C@H]3CC[C@@H](O)CC3)nc12 [Compound 272]
14 | A (A=greater than 200 fold) | CC(C)c1cnn2c(NCc3ccccc3-c3ccc4ccccc4n3)nc(O[C@H]3CC[C@H](O)CC3)nc12 [Compound 273]

Row | Compound | CDK5/CDK7: Selectivity of CDK7 inhibition over CDK5 inhibition
15 | CC(C)c1cnn2c(NCc3ccccc3-n3cccn3)nc(N3CCc4ncccc4C3)nc12 [Compound 275] | B (B=less than 200 fold, but greater than 20 fold)

same assay, conditions: read-out: CDK7 enzymatic activity (IC50 activity range)

Row | IC50 [nM] | Compound
16 | < 100 | CC(C)c1cnn2c(NCc3ccccc3-c3ccc4ccccc4n3)nc(O[C@H]3CC[C@@H](O)CC3)nc12 [Compound 272]
17 | < 100 | CC(C)c1cnn2c(NCc3ccccc3-c3ccc4ccccc4n3)nc(O[C@H]3CC[C@H](O)CC3)nc12 [Compound 273]
18 | < 100 | CC(C)c1cnn2c(NCc3ccccc3-n3cccn3)nc(N3CCc4ncccc4C3)nc12 [Compound 275]

molecular target: T3, CDK1/Cyclin B (Homo sapiens, UniProt P06493); test: Enzymatic assay for CDK1 (FRET based LANCE Ultra kinase assay); type: biochemical; conditions: read-out: CDK1 enzymatic activity (IC50 activity range)
T3 construct: purchased Invitrogen PR4768C
T3 sequence (P06493 whole entry): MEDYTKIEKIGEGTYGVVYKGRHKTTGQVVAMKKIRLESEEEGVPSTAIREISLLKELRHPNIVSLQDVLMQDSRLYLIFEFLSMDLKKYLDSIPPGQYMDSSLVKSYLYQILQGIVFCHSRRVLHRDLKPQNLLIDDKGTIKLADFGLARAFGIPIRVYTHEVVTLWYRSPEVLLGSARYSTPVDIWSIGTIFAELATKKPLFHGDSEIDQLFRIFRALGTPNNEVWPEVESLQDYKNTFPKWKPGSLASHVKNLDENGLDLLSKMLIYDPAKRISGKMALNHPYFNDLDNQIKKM
T3 sequence (P14635 whole entry partner): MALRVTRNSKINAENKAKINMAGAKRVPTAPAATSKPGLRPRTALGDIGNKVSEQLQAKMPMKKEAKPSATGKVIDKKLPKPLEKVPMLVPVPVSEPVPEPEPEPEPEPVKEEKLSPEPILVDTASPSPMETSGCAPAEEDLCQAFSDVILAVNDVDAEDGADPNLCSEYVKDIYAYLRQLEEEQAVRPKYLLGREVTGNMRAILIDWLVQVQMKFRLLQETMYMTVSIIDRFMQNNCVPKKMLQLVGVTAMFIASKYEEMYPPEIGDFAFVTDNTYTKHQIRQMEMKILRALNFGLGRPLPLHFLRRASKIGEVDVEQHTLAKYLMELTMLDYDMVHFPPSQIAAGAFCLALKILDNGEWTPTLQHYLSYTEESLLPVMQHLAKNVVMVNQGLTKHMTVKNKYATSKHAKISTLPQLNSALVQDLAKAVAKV
How it was run: as §1

Row | IC50 [nM] | Compound
19 | > 1000 | CC(C)c1cnn2c(NCc3ccccc3-c3ccc4ccccc4n3)nc(O[C@H]3CC[C@@H](O)CC3)nc12 [Compound 272]
20 | > 1000 | CC(C)c1cnn2c(NCc3ccccc3-c3ccc4ccccc4n3)nc(O[C@H]3CC[C@H](O)CC3)nc12 [Compound 273]
21 | > 1000 | CC(C)c1cnn2c(NCc3ccccc3-n3cccn3)nc(N3CCc4ncccc4C3)nc12 [Compound 275]

test system: A2780; test: Cellular A2780 viability assay (CellTiter-Glo, 72 hours); type: cell-based; conditions: Homo sapiens
Text: Human T-cell acute lymphoblastic leukemia cell line, MOLT-4 (ATCC, Cat #CRL-1582), Human multiple myeloma cell line, RPMI-8226 (Invitrogen, Cat #22400-089) and MM.1S (ATCC, Cat #CRL-2974), NSCLC (Non-small cell lung cancer) cell line H460 (ATCC, Cat #HTB-177), Human colon colorectal carcinoma cell line HCT116 (ATCC, Cat #CCL-247), Human acute monocytic leukemia cell line MV4-11 (ATCC, Cat #CRL-9591), OVCAR-3 (ATCC, Cat #HTB-161) and A2780 (ECACC, Cat #93112519) were obtained from ATCC. Cells were grown in RPMI-1640 media (Invitrogen, Cat #22400-089) supplemented with 10% FBS (Invitrogen, Cat #10099141) and 1% penicillin/streptomycin (Invitrogen, Cat #15070063) and cultured at 37° C., 5% CO2 in a humidified chamber. All cell lines were routinely tested for mycoplasma.
The effect of the CDK7 inhibitor to inhibit the growth of target cancer cells was evaluated through the 72 hours time period of viability assay. Briefly, the candidate cell line ware plated in 96 well plate at the following density of cells respectively. 1×10^4 cells/well for MOLT-4, RPMI-8226, MV4-11 and MM.1S, 5×10^3 for H460, HCT116 and OVCAR-3 and IX 10^3 for A2780. After 24 hours, the cells were treated with various concentrations of the compound (ranging from 0.0015 uM to 10 uM). DMSO solvent without compound served as a control and final DMSO concentration less than 0.1%. After 72 hours of incubation at 37° C., 5% CO2 incubator, cells were analyzed for the viability using the CellTiter-Glo Luminescent Cell Viability Assay (Promega, Cat #G7570). All viability assays were performed in duplicate and Luminescence was read using an Envision (Perkin Elmer, USA). Data was analyzed using XLfit software.

Row | IC50 [nM] | Compound
22 | 1000 to 10000 | CC(C)c1cnn2c(NCc3ccccc3-c3ccc4ccccc4n3)nc(O[C@H]3CC[C@@H](O)CC3)nc12 [Compound 272]
23 | 1000 to 10000 | CC(C)c1cnn2c(NCc3ccccc3-c3ccc4ccccc4n3)nc(O[C@H]3CC[C@H](O)CC3)nc12 [Compound 273]
24 | 1000 to 10000 | CC(C)c1cnn2c(NCc3ccccc3-n3cccn3)nc(N3CCc4ncccc4C3)nc12 [Compound 275]

molecular target: T4, CDK2/Cyclin A (Homo sapiens, UniProt P24941); test: Enzymatic assay for CDK2 (FRET based LANCE Ultra kinase assay); type: biochemical; conditions: read-out: CDK2 enzymatic activity (IC50 activity range)
T4 construct: purchased Invitrogen PV6290
How it was run: as §1

Row | IC50 [nM] | Compound
25 | > 1000 | CC(C)c1cnn2c(NCc3ccccc3-c3ccc4ccccc4n3)nc(O[C@H]3CC[C@@H](O)CC3)nc12 [Compound 272]
26 | > 1000 | CC(C)c1cnn2c(NCc3ccccc3-c3ccc4ccccc4n3)nc(O[C@H]3CC[C@H](O)CC3)nc12 [Compound 273]
27 | > 1000 | CC(C)c1cnn2c(NCc3ccccc3-n3cccn3)nc(N3CCc4ncccc4C3)nc12 [Compound 275]

test system: H460; test: Cellular H460 viability assay (CellTiter-Glo, 72 hours); type: cell-based; conditions: Homo sapiens, NCI-H460
How it was run: as §2

Row | IC50 [nM] | Compound
28 | 1000 to 10000 | CC(C)c1cnn2c(NCc3ccccc3-c3ccc4ccccc4n3)nc(O[C@H]3CC[C@@H](O)CC3)nc12 [Compound 272]
29 | 1000 to 10000 | CC(C)c1cnn2c(NCc3ccccc3-c3ccc4ccccc4n3)nc(O[C@H]3CC[C@H](O)CC3)nc12 [Compound 273]
30 | 1000 to 10000 | CC(C)c1cnn2c(NCc3ccccc3-n3cccn3)nc(N3CCc4ncccc4C3)nc12 [Compound 275]
